Test results as given in ChEMBL document CHEMBL5728961, “Compounds useful for treating gastrointestinal tract disorders” (2022).

Tests used:
[1] = molecular target: T1, Sodium/hydrogen exchanger 3 (Homo sapiens, UniProt P48764); assay: Cell-Based Assay of NHE-3 Activity (Pre-Incubation Inhibition): Rat and human NHE-3-mediated Na+-dependent H+ antiport was measured using a modification of the pH sensitive dye method originally reported by Paradiso (Proc. Natl. Acad. Sci. USA. (1984) 81(23): 7436-7440). PS120 fibroblasts stably expressing human NHE3 and NHERF2 were obtained from Mark Donowitz (Baltimore, Md.). Opossum kidney (OK) cells were obtained from the ATCC and propagated per their instructions. The rat NHE-3 gene (GenBank M85300) was introduced into OK cells via electroporation, and cells were seeded into 96 well plates and grown overnight. Medium was aspirated from the wells then incubated for 30 min at 37° C. with NH4Cl-HEPES buffer (20 mM NH4Cl, 80 mM NaCl, 50 mM HEPES, 5 mM KCl, 2 mM CaCl2, 1 mM MgCl2, pH 7.4) containing 5 μM BCECF-AM. Cells were washed once with Ammonium free, Na+-free HEPES (100 mM choline, 50 mM HEPES, 10 mM glucose, 5 mM KCl, 2 mM CaCl2, 1 mM MgCl2, pH 7.4) and incubated in the same buffer for 10 minutes at room temperature to lower intracellular pH with 0-30 μM test compound. […] Changes in intracellular pH were monitored using a FLIPR Tetra® (Molecular Devices, Sunnyvale, Calif.) by excitation at λex 439 to 505 nm, and measuring BCECF fluorescence at λem 538 nm. The initial rate of the fluorescence ratio change was used as a measure of NHE-mediated Na+/H+ activity, and reported as the change in fluorescence ratio per minute.
T1 sequence (P48764 whole entry): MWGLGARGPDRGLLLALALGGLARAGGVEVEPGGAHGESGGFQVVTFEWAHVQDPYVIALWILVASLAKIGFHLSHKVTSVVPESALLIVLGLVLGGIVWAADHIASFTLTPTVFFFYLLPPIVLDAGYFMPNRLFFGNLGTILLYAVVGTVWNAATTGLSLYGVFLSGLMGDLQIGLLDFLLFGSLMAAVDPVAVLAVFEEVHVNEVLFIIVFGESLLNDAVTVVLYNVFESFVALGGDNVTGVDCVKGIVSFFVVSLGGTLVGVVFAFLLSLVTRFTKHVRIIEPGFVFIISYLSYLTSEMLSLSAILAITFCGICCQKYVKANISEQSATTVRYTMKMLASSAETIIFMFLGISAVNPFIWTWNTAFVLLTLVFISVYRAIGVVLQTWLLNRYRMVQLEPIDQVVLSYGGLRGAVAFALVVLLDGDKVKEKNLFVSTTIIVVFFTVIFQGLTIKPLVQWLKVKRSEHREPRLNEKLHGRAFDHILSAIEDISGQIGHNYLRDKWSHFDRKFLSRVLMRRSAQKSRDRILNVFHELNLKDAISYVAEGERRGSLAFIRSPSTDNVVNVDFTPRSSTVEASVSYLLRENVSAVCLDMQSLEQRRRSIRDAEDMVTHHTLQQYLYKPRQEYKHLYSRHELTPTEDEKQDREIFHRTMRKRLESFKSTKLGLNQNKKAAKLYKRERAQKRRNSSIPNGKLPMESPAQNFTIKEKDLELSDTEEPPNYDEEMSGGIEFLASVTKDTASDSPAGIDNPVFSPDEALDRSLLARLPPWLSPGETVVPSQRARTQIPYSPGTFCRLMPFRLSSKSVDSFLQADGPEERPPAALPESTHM

[2] = molecular target: T1, Sodium/hydrogen exchanger 3; assay: Cell-Based Assay of NHE-3 Activity (Persistent Inhibition): The ability of compounds to inhibit human and rat NHE-3-mediated Na+ dependent H+ antiport after application and washout was measured using a modification of the pH sensitive dye method described above. PS120 fibroblasts stably expressing human NHE3 and NHERF2 were obtained from Mark Donowitz (Baltimore, Md.). Opossum kidney (OK) cells were obtained from the ATCC and propagated per their instructions. The rat NHE-3 gene was introduced into OK cells via electroporation, and cells were seeded into 96 well plates and grown overnight. Medium was aspirated from the wells, cells were washed once with NaCl-HEPES buffer (100 mM NaCl, 50 mM HEPES, 10 mM glucose, 5 mM KCl, 2 mM CaCl2, 1 mM MgCl2, pH 7.4), then overlayed with NaCl-HEPES buffer containing 0-30 μM test compound. After a 60 min incubation at room temperature, the test drug containing buffer was aspirated from the cells. Following aspiration, cells were washed once with NaCl-HEPES buffer without drug, then incubated for 30 min at 37° C. with NH4Cl-HEPES buffer (20 mM NH4Cl, 80 mM NaCl, 50 mM HEPES, 5 mM KCl, 2 mM CaCl2, 1 mM MgCl2, pH 7.4) containing 5 μM BCECF-AM. Cells were washed once with Ammonium free, Na+-free HEPES (100 mM choline, 50 mM HEPES, 10 mM glucose, 5 mM KCl, 2 mM CaCl2, 1 mM MgCl2, pH 7.4) and incubated in the same buffer for 10 minutes at room temperature to lower intracellular pH. NHE-3-mediated recovery of neutral intracellular pH was initiated ([…]) by addition of Na-HEPES buffer. […] Changes in intracellular pH were monitored using a FLIPR Tetra® (Molecular Devices, Sunnyvale, Calif.) by excitation at λex 439 to 505 nm, and measuring BCECF fluorescence at λem 538 nm. The initial rate of the fluorescence ratio change was used as a measure of NHE-mediated Na+/H+ activity, and reported as the change in fluorescence ratio per minute.

IC50 [1] [nM] | IC50 [2] [nM] | SMILES
< 100 | < 100 | Cc1cc(Cl)cc2c1C[C@H](N1CCC[C@@H](N)C1)[C@H]2Oc1ccc(S(=O)(=O)NCCOCCOCCNC(=O)NCCCCNC(=O)NCCOCCOCCNS(=O)(=O)c2ccc(O[C@H]3c4cc(Cl)cc(C)c4C[C@@H]3N3CCC[C@@H](N)C3)c(F)c2)cc1F
> 1000 | > 1000 | CN(C)[C@@H]1CCCN([C@H]2Cc3c(C#N)cc(Cl)cc3[C@@H]2Oc2ccc(S(=O)(=O)NCCOCCOCCNC(=O)NCCCCNC(=O)NCCOCCOCCNS(=O)(=O)c3ccc(O[C@H]4c5cc(Cl)cc(C#N)c5C[C@@H]4N4CCC[C@@H](N(C)C)C4)c(F)c3)cc2F)C1
< 100 | < 100 | N[C@@H]1CCCN([C@H]2Cc3c(Cl)cc(Cl)cc3[C@@H]2Oc2ccc(S(=O)(=O)NCCCCCCn3cc(CNC(=O)NCCCCNC(=O)NCc4cn(CCCCCCNS(=O)(=O)c5ccc(O[C@H]6c7cc(Cl)cc(Cl)c7C[C@@H]6N6CCC[C@@H](N)C6)cc5)nn4)nn3)cc2)C1
< 100 | < 100 | Cc1cc(Cl)cc2c1C[C@H](N1CCC[C@@H](N)C1)[C@H]2Oc1ccc(S(=O)(=O)NCCOCCOCCNC(=O)NCCCCNC(=O)NCCOCCOCCNS(=O)(=O)c2ccc(O[C@H]3c4cc(Cl)cc(C)c4C[C@@H]3N3CCC[C@@H](N)C3)cc2)cc1
> 1000 | > 1000 | CN(C)[C@H]1Cc2c(cc(Cl)cc2C(F)(F)F)[C@@H]1Oc1ccc(S(=O)(=O)NCCOCCOCCNC(=O)NCCCCNC(=O)NCCOCCOCCNS(=O)(=O)c2ccc(O[C@H]3c4cc(Cl)cc(C(F)(F)F)c4C[C@@H]3N(C)C)cc2)cc1
< 100 | < 100 | O=C(NCCCCNC(=O)NCCOCCN1CC[C@H](NS(=O)(=O)c2ccc(O[C@H]3c4cc(Cl)cc(Cl)c4C[C@@H]3N3CCNCC3)c(F)c2)C1)NCCOCCN1CC[C@H](NS(=O)(=O)c2ccc(O[C@H]3c4cc(Cl)cc(Cl)c4C[C@@H]3N3CCNCC3)c(F)c2)C1
> 1000 | > 1000 | Cc1cc(S(=O)(=O)NCCOCCOCCNC(=O)NCCCCNC(=O)NCCOCCOCCNS(=O)(=O)c2ccc(O[C@H]3c4cc(Cl)cc(C#N)c4C[C@@H]3N3CCC[C@@H](N)C3)c(C)c2)ccc1O[C@H]1c2cc(Cl)cc(C#N)c2C[C@@H]1N1CCC[C@@H](N)C1
< 100 | < 100 | N[C@@H]1CCCN([C@H]2Cc3c(Cl)cc(Cl)cc3[C@@H]2Oc2ccc(S(=O)(=O)NCCOCCOCCNC(=O)NCCCCNC(=O)NCCOCCOCCNS(=O)(=O)c3ccc(O[C@H]4c5cc(Cl)cc(Cl)c5C[C@@H]4N4CCC[C@@H](N)C4)c(F)c3)cc2F)C1
< 100 | < 100 | Cc1cc(S(=O)(=O)N[C@@H]2CCN(CCOCCNC(=O)NCCCCNC(=O)NCCOCCN3CC[C@@H](NS(=O)(=O)c4ccc(O[C@H]5c6cc(Cl)cc(C#N)c6C[C@@H]5N(C)C)c(C)c4)C3)C2)ccc1O[C@H]1c2cc(Cl)cc(C#N)c2C[C@@H]1N(C)C
< 100 | < 100 | Cc1cc(Cl)cc2c1C[C@H](N(C)C)[C@H]2Oc1ccc(S(=O)(=O)NCCOCCOCCNC(=O)NCCCCNC(=O)NCCOCCOCCNS(=O)(=O)c2ccc(O[C@H]3c4cc(Cl)cc(C)c4C[C@@H]3N(C)C)c(F)c2)cc1F
< 100 | < 100 | Cc1cc(Cl)cc2c1C[C@H](N1CCNCC1)[C@H]2Oc1ccc(S(=O)(=O)NCCOCCOCCNC(=O)NCCCCNC(=O)NCCOCCOCCNS(=O)(=O)c2ccc(O[C@H]3c4cc(Cl)cc(C)c4C[C@@H]3N3CCNCC3)cc2)cc1
< 100 | < 100 | Cc1cc(S(=O)(=O)N2CC[C@@H](COCCOCCNC(=O)NCCCCNC(=O)NCCOCCOC[C@@H]3CCN(S(=O)(=O)c4ccc(O[C@H]5c6cc(Cl)cc(C#N)c6C[C@@H]5N(C)C)c(C)c4)C3)C2)ccc1O[C@H]1c2cc(Cl)cc(C#N)c2C[C@@H]1N(C)C
< 100 | < 100 | Cc1cc(S(=O)(=O)NCCOCCOCCNC(=O)NCCCCNC(=O)NCCOCCOCCNS(=O)(=O)c2ccc(O[C@H]3c4cc(Cl)cc(C)c4C[C@@H]3N3CCC[C@@H](N)C3)c(C)c2)ccc1O[C@H]1c2cc(Cl)cc(C)c2C[C@@H]1N1CCC[C@@H](N)C1
< 100 | < 100 | Cc1cc(O[C@H]2c3cc(Cl)cc(Cl)c3C[C@@H]2N2CCC[C@@H](N)C2)c(F)cc1S(=O)(=O)NCCOCCOCCNC(=O)NCCCCNC(=O)NCCOCCOCCNS(=O)(=O)c1cc(F)c(O[C@H]2c3cc(Cl)cc(Cl)c3C[C@@H]2N2CCC[C@@H](N)C2)cc1C
< 100 | < 100 | Cc1cc(S(=O)(=O)NCCOCCOCCNC(=O)NCCCCNC(=O)NCCOCCOCCNS(=O)(=O)c2ccc(O[C@H]3c4cc(Cl)cc(Cl)c4C[C@@H]3N3CCC[C@@H](N(C)C)C3)c(C)c2)ccc1O[C@H]1c2cc(Cl)cc(Cl)c2C[C@@H]1N1CCC[C@@H](N(C)C)C1
< 100 | < 100 | Cc1cc(S(=O)(=O)NCCOCCOCCNC(=O)NCCCCNC(=O)NCCOCCOCCNS(=O)(=O)c2cc(C)c(O[C@H]3c4cc(Cl)cc(Cl)c4C[C@@H]3N3CCC[C@@H](N)C3)cc2F)c(F)cc1O[C@H]1c2cc(Cl)cc(Cl)c2C[C@@H]1N1CCC[C@@H](N)C1
< 100 | < 100 | COc1cc(Cl)cc2c1C[C@H](N1CCC[C@@H](N)C1)[C@H]2Oc1ccc(S(=O)(=O)NCCOCCOCCNC(=O)NCCCCNC(=O)NCCOCCOCCNS(=O)(=O)c2ccc(O[C@H]3c4cc(Cl)cc(OC)c4C[C@@H]3N3CCC[C@@H](N)C3)cc2)cc1
< 100 | < 100 | N[C@@H]1CCCN([C@H]2Cc3c(Cl)cc(Cl)cc3[C@@H]2Oc2c(F)cc(S(=O)(=O)NCCOCCOCCNC(=O)NCCCCNC(=O)NCCOCCOCCNS(=O)(=O)c3cc(F)c(O[C@H]4c5cc(Cl)cc(Cl)c5C[C@@H]4N4CCC[C@@H](N)C4)c(F)c3)cc2F)C1
< 100 | < 100 | CN(C)[C@@H]1CCCN([C@H]2Cc3c(Cl)cc(Cl)cc3[C@@H]2Oc2ccc(S(=O)(=O)NCCOCCOCCNC(=O)NCCCCNC(=O)NCCOCCOCCNS(=O)(=O)c3ccc(O[C@H]4c5cc(Cl)cc(Cl)c5C[C@@H]4N4CCC[C@@H](N(C)C)C4)c(F)c3)cc2F)C1
> 1000 | > 1000 | CN(C)[C@H]1Cc2c(Cl)cc(Cl)cc2[C@@H]1Oc1ccc(S(=O)(=O)NCCCCCCCCNC(=O)NCCCCNC(=O)NCCCCCCCCNS(=O)(=O)c2ccc(O[C@H]3c4cc(Cl)cc(Cl)c4C[C@@H]3N(C)C)cc2)cc1
> 1000 | > 1000 | CN(C)[C@H]1Cc2c(OC(F)(F)F)cc(Cl)cc2[C@@H]1Oc1ccc(S(=O)(=O)NCCOCCOCCNC(=O)NCCCCNC(=O)NCCOCCOCCNS(=O)(=O)c2ccc(O[C@H]3c4cc(Cl)cc(OC(F)(F)F)c4C[C@@H]3N(C)C)cc2)cc1
< 100 | < 100 | N#Cc1cc(Cl)cc2c1C[C@H](N1CCC[C@@H](N)C1)[C@H]2Oc1ccc(S(=O)(=O)NCCOCCOCCNC(=O)NCCCCNC(=O)NCCOCCOCCNS(=O)(=O)c2ccc(O[C@H]3c4cc(Cl)cc(C#N)c4C[C@@H]3N3CCC[C@@H](N)C3)cc2)cc1
> 1000 | > 1000 | Cc1cc(S(=O)(=O)NCCCCCCCCNC(=O)NCCCCNC(=O)NCCCCCCCCNS(=O)(=O)c2ccc(O[C@H]3c4cc(Cl)cc(Cl)c4C[C@@H]3N(C)C)c(C)c2)ccc1O[C@H]1c2cc(Cl)cc(Cl)c2C[C@@H]1N(C)C

SMILES | IC50 [1] [nM] | IC50 [2] [nM]
O=C(NCCCCNC(=O)NCCOCCOCCNS(=O)(=O)c1ccc(O[C@H]2c3cc(Cl)cc(Cl)c3C[C@@H]2N2C3CCCC2CC3)cc1)NCCOCCOCCNS(=O)(=O)c1ccc(O[C@H]2c3cc(Cl)cc(Cl)c3C[C@@H]2N2C3CCCC2CC3)cc1 | < 100 | < 100
